Data: patent US4518611A, “2-Furylbutyrolactone modulation of the immune system in mammals” (priority 1983, dated 1985)

Tested on: spleen lymphocytes
Test: Lymphocyte stimulation assay after in vivo treatment, C57BL/6 mice
Conditions: 4 days
Protocol: The purpose of this assay is to challenge lymphocytes in microcultures with one or more polyclonal mitogens at concentrations that will induce mitogenesis within 72 hours of stimulation.
In the mouse model, spleens are removed from different strains of mice and the spleen cells are teased free and suspended in RPMI-1640 tissue culture medium at a concentration of usually […]. These cells are dispensed at a concentration of 5.0×10^5 cells per microculture well in a 96 well flat bottom 96 well tissue culture plate. All testing of the compounds of this invention or mitogens are done in replicates of 10. The cells are then treated with PHA, Con-A, specific antigens, or buffer only. If in vitro testing is done, varying concentrations of the compounds of this invention or buffer only are added to the cells as well. After treatment with the mitogens and/or compounds of this invention, the cells are incubated for 72 hours. The response of these cells to mitogens and/or the compounds of this invention is assessed using ^14 C-thymidine labeling on the fourth day at a concentration of 0.01 μCi/well. The labeled cells are harvested using a lymphocyte harvestor and placed onto fibrous paper discs. A scintillation cocktail is added to vials containing the discs and the results are obtained using a LKB-liquid scintillation counter (Model 1216/Rackbeta II). The data is expressed as a ratio of the cpm of the mitogen stimulated group to the control (nonmitogen) treated group=lymphocyte stimulation index (LSI).
The lymphocyte stimulation assay may be performed directly on spleen cells obtained from various strains of mice not treated with the compounds of this invention or on lymphocytes obtained from human […]. […] Alternatively, the mice may be treated in vivo with the compounds of this invention by intraperitoneal multi-dose schedules, followed by sacrifice and harvesting spleen lymphocytes. These cells are then tested for their response to polyclonal mitogens or specific antigens used to immunize the mice. In this system however, no additional compound is added to the in vitro lymphocyte stimulation assay system.
Two strains of mice, C57BL/6 and BDF1 are treated for seven days with i.p. administration of either 25, 50, 100, 200, or 400 mg/kg of Cpd. 1 or just buffer. This is followed on the eighth day by a lymphocyte stimulation assay.
A comparison is made of the lymphocyte response of C57BL/6 mice treated 4 days with i.p. administration of either 50, 100, 200, 400 or 800 mg/kg of Cpd. 1, 50, 100, 200, 400 or 800 mg/kg of ascorbic acid (AA), or just buffer. This is followed on the fifth day by a lymphocyte stimulation assay.
Two strains of mice, C57BL/6 and BALB/c, are treated 4 days with i.p. administration of either 50, 100, 200, or 400 mg/kg of Cpd. 1, or just buffer. This is followed on the fifth day by a lymphocyte stimulation assay.
C57BL/6 mice were treated with four daily i.p. doses of either 50, 100, 200, or 400 mg/kg of Cpd. 1 or just buffer. On the fifth day a lymphocyte stimulation assay was performed.
Mice of the C57BL/6 strain were tested with i.p. administration of either 100, 200, 400 or 600 mg/kg of Cpd. 1 or just buffer. This was followed by removal of spleens and treatment of lymphocytes therein with mitogens PHA and Con-A.
The compound of Example 2, Cpd. 2, was tested in vivo by using C57BL/6 mice and treating them with […] or just buffer for four consecutive days by the i.p. route. On the fifth day a lymphocyte stimulation assay was performed.

“2-furylbutyrolactone:succinimide [Cpd. 2]” was tested, and the “Lymphocyte Stimulation Index, Con-A” value (50 mg/kg i.p.) was 96.1, the “Lymphocyte Stimulation Index, Control (no mitogen)” value (50 mg/kg i.p.) was “.88” and the “Lymphocyte Stimulation Index, PHA” value (50 mg/kg i.p.) was 15.5. The “Lymphocyte Stimulation Index, Con-A” value (100 mg/kg i.p.) was 105, the “Lymphocyte Stimulation Index, Control (no mitogen)” value (100 mg/kg i.p.) was 1.5 and the “Lymphocyte Stimulation Index, PHA” value (100 mg/kg i.p.) was 15.4. The “Lymphocyte Stimulation Index, Con-A” value (200 mg/kg i.p.) was 99.3, the “Lymphocyte Stimulation Index, Control (no mitogen)” value (200 mg/kg i.p.) was “.69” and the “Lymphocyte Stimulation Index, PHA” value (200 mg/kg i.p.) was 11.3. The “Lymphocyte Stimulation Index, Con-A” value (400 mg/kg i.p.) was 109, the “Lymphocyte Stimulation Index, Control (no mitogen)” value (400 mg/kg i.p.) was 1.3 and the “Lymphocyte Stimulation Index, PHA” value (400 mg/kg i.p.) was 12.9. The “Lymphocyte Stimulation Index, Con-A” value (600 mg/kg i.p.) was 94.0, the “Lymphocyte Stimulation Index, Control (no mitogen)” value (600 mg/kg i.p.) was 1.5 and the “Lymphocyte Stimulation Index, PHA” value (600 mg/kg i.p.) was 15.8. The “effect on Con-A response (in words)” value (i.p., Con-A) was “only marginal stimulation of Con-A mitogenesis” and the “effect on PHA response (in words)” value (i.p., PHA) was “no effect on PHA mitogenesis”.
